Experimental data: ChEMBL document CHEMBL4219144, “Novel 6-aryl substituted 4-pyrrolidineaminoquinazoline derivatives as potent phosphoinositide 3-kinase delta (PI3Kδ) inhibitors” (Bioorg Med Chem, 2018)

Tests used:
[1] = target: T1, Phosphatidylinositol 4,5-bisphosphate 3-kinase catalytic subunit delta isoform (Homo sapiens) (UniProt O00329); assay: Inhibition of PI3K p110delta (unknown origin) at 100 nM using lipid substrate after 40 mins by kinase-Glo assay relative to control
T1 sequence (whole entry): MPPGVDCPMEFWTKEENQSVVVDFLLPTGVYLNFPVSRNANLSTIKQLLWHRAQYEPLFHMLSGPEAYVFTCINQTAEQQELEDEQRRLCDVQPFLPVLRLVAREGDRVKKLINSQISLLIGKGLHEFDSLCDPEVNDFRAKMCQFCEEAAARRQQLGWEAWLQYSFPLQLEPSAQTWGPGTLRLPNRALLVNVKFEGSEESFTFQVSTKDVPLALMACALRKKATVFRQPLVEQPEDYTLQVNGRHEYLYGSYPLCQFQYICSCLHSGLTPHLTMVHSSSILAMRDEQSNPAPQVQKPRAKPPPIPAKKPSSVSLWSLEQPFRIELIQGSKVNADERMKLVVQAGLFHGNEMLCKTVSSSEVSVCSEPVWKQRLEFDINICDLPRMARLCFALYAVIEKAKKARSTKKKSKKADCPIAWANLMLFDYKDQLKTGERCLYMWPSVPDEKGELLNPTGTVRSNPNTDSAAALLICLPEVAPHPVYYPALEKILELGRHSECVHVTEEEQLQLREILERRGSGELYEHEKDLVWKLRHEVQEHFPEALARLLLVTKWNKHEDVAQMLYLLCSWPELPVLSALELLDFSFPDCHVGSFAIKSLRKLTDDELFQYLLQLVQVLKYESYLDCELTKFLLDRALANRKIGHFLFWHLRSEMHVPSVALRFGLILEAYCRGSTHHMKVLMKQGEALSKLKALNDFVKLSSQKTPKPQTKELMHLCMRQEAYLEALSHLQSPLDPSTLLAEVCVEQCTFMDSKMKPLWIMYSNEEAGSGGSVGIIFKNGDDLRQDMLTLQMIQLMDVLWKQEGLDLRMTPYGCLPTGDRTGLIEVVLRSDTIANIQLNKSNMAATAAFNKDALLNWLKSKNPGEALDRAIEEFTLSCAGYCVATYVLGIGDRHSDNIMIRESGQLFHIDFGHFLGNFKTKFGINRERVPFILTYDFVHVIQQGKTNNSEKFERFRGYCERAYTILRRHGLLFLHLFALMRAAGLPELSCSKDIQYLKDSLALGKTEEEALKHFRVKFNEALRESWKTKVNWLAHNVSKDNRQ

[2] = target: T2, Phosphatidylinositol 4,5-bisphosphate 3-kinase catalytic subunit delta isoform (Homo sapiens, UniProt O00329); assay: Inhibition of PI3K p110delta (unknown origin) using lipid substrate after 40 mins by kinase-Glo assay
T2 sequence (O00329 whole entry): T1 sequence (whole entry)

[3] = target: T2, Phosphatidylinositol 4,5-bisphosphate 3-kinase catalytic subunit delta isoform; assay: Inhibition of PI3Kdelta (unknown origin)
[4] = test system: RPMI-8226; assay: Antiproliferative activity against human RPMI8226 cells after 72 hrs by MTT assay; format: functional, cell-based; conditions: RPMI-8226, 72 h
[5] = test system: Ramos; assay: cells; format: functional, cell-based; conditions: Homo sapiens, 72 h
Description: Antiproliferative activity against human Ramos cells after 72 hrs by MTT assay

[6] = test system: Raji; assay: cells; format: functional, cell-based; conditions: Homo sapiens, 72 h
Description: Antiproliferative activity against human Raji cells after 72 hrs by MTT assay

[7] = test system: SU-DHL-6; assay: Antiproliferative activity against human SUDHL6 cells after 72 hrs by CCK8 assay; format: functional, cell-based; conditions: SU-DHL-6, 72 h
[8] = Cmax in Sprague-Dawley rat at 3 mg/kg, po by LC-MS/MS analysis; format: ADME, organism-based; parameters: dose 3 mg/kg, route oral; conditions: in vivo
[9] = AUC in Sprague-Dawley rat at 3 mg/kg, po by LC-MS/MS analysis; format: ADME, organism-based; conditions: in vivo
[10] = Oral bioavailability in Sprague-Dawley rat at 3 mg/kg by LC-MS/MS analysis; format: ADME, organism-based; conditions: in vivo
[11] = target: Phosphatidylinositol 4,5-bisphosphate 3-kinase catalytic subunit alpha isoform (Homo sapiens, UniProt P42336); assay: Inhibition of PI3K p110alpha (unknown origin) using lipid substrate after 40 mins by kinase-Glo assay
[12] = target: Phosphatidylinositol 4,5-bisphosphate 3-kinase catalytic subunit beta isoform (Homo sapiens, UniProt P42338); assay: Inhibition of PI3K p110beta (unknown origin) using lipid substrate after 40 mins by kinase-Glo assay
[13] = target: Phosphatidylinositol 4,5-bisphosphate 3-kinase catalytic subunit gamma isoform (Homo sapiens, UniProt P48736); assay: Inhibition of PI3K p110gamma (unknown origin) using lipid substrate after 40 mins by kinase-Glo assay
[14] = Cmax in Sprague-Dawley rat at 10 mg/kg, po by LC-MS/MS analysis; format: ADME, organism-based; parameters: dose 10 mg/kg, route oral; conditions: in vivo
[15] = AUC in Sprague-Dawley rat at 10 mg/kg, po by LC-MS/MS analysis; format: ADME, organism-based; conditions: in vivo
[16] = species: Homo sapiens; assay: Selectivity ratio of IC50 for PI3K p110alpha (unknown origin) to IC50 for PI3K p110delta (unknown origin)
[17] = species: Homo sapiens; assay: Selectivity ratio of IC50 for PI3K p110beta (unknown origin) to IC50 for PI3K p110delta (unknown origin)
[18] = species: Homo sapiens; assay: Selectivity ratio of IC50 for PI3K p110gamma (unknown origin) to IC50 for PI3K p110delta (unknown origin)
[19] = test system: Rattus norvegicus; assay: Clearance in Sprague-Dawley rat at 10 mg/kg, po by LC-MS/MS analysis; format: ADME, organism-based; conditions: in vivo
[20] = test system: Rattus norvegicus; assay: Apparent volume of distribution in Sprague-Dawley rat at 10 mg/kg, po by LC-MS/MS analysis; format: ADME, organism-based; conditions: in vivo
[21] = test system: Rattus norvegicus; assay: Half life in Sprague-Dawley rat at 10 mg/kg, po by LC-MS/MS analysis; format: ADME, organism-based; conditions: in vivo

Sequence of Phosphatidylinositol 4,5-bisphosphate 3-kinase catalytic subunit alpha isoform (P42336 whole entry, canonical isoform): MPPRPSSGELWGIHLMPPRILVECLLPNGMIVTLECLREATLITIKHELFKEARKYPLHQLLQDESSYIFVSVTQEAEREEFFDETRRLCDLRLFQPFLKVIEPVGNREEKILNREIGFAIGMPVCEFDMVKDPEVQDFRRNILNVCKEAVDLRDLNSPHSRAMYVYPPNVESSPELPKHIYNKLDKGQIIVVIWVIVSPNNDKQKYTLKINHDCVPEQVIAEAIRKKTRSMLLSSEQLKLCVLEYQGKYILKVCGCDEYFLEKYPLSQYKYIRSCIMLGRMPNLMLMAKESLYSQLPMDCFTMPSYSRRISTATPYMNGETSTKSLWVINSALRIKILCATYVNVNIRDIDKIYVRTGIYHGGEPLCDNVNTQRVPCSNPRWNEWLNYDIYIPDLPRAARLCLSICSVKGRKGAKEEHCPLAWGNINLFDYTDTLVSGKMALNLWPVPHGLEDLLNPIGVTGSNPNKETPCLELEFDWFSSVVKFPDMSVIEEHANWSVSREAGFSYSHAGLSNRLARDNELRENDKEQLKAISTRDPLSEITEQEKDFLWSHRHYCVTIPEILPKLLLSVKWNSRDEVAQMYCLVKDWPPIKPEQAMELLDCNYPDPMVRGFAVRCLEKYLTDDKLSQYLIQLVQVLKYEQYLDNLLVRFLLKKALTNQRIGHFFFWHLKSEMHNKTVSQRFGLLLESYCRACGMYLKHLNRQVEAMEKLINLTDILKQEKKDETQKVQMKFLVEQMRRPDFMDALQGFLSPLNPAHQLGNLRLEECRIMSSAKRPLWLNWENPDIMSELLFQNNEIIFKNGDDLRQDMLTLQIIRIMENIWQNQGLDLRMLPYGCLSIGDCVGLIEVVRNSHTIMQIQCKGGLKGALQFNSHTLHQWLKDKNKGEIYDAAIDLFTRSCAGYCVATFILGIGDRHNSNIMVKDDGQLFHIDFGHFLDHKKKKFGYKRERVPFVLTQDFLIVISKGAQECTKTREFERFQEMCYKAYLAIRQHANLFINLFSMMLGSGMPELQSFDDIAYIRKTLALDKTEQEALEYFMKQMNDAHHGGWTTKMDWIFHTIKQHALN
Sequence of Phosphatidylinositol 4,5-bisphosphate 3-kinase catalytic subunit beta isoform (P42338 whole entry, canonical isoform): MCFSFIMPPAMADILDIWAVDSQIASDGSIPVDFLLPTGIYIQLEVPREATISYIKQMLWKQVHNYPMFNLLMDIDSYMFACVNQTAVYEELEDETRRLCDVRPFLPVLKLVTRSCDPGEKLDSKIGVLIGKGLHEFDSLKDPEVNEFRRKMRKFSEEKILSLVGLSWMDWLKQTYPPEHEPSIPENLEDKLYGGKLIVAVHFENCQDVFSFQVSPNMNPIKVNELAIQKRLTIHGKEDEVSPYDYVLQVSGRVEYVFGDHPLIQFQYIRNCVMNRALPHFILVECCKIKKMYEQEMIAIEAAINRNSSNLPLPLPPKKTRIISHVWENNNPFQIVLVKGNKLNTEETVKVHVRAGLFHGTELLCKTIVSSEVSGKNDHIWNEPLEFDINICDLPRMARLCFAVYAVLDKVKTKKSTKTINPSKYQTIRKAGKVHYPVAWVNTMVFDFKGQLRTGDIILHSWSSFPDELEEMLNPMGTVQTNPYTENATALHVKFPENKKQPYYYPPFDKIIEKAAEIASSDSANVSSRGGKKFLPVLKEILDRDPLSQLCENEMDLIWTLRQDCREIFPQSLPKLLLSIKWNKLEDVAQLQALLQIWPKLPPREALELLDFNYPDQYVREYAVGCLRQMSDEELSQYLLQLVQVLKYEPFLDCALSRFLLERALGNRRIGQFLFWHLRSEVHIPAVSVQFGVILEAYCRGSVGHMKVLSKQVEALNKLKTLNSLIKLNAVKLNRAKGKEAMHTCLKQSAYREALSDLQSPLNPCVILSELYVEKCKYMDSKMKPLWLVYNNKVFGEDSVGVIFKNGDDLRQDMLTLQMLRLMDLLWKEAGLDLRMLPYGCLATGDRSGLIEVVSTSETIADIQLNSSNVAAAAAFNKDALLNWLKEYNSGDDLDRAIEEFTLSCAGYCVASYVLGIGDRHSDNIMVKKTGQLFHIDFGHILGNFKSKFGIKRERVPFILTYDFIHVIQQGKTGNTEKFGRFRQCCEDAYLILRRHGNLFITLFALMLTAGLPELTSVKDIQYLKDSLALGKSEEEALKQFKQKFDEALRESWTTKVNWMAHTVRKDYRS
Sequence of Phosphatidylinositol 4,5-bisphosphate 3-kinase catalytic subunit gamma isoform (P48736 whole entry, canonical isoform): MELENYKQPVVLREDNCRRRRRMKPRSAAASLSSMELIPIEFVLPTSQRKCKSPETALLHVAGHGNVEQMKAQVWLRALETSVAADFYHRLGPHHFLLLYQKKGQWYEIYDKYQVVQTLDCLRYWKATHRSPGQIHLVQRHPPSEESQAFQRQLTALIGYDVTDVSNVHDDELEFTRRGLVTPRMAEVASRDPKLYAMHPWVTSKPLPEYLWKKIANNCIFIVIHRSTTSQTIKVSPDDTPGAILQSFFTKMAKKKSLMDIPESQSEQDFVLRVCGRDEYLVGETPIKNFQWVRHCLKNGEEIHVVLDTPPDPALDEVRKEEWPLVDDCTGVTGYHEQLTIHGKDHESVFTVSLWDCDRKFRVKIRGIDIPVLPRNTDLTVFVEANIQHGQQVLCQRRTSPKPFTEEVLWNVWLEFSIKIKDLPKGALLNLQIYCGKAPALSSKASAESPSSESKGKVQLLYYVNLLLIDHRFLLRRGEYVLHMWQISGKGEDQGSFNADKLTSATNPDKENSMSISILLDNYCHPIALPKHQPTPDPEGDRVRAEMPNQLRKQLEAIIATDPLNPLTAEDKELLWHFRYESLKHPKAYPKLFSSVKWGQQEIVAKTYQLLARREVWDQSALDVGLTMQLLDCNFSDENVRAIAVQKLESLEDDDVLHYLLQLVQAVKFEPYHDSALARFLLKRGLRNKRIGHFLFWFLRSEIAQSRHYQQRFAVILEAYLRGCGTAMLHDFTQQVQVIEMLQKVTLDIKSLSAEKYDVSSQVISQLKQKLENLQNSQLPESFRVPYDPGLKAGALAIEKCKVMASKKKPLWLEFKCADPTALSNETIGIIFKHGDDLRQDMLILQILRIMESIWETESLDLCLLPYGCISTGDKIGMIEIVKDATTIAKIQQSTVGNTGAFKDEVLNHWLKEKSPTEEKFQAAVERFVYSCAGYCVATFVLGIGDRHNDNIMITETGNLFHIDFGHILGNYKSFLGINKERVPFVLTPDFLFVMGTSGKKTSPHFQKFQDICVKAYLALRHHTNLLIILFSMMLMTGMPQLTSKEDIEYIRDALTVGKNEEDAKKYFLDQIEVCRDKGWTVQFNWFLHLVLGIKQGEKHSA

With `COc1ccc(-c2ccc3ncnc(N[C@H]4CCN(C(C)=O)C4)c3c2)cn1` the inhibition [1] was 79%.
`COc1ccc(-c2ccc3ncnc(N[C@H]4CCN(C(=O)C5CCOCC5)C4)c3c2)cc1C(N)=O` gave an IC50 [2] of 7.8 nM and an inhibition [1] of 92%.
For `C=CC(=O)N1CC[C@H](Nc2ncnc3ccc(-c4ccc(OC)nc4)cc23)C1`, the inhibition [1] was 0%.
In the case of `COc1ccc(-c2ccc3ncnc(N[C@H]4CCN(C(=O)C5CCOCC5)C4)c3c2)cn1`, the IC50 [2] is reported as 3.4 nM and the inhibition [1] is reported as 97%.
`NC(=O)c1cc(-c2ccc3ncnc(-c4cccc(C(=O)NCCN5CCOCC5)c4)c3c2)ccc1Cl` showed an IC50 [3] of 17 nM.
`O=C(CCCCCCC(=O)Nc1ccccc1)NO` [VORINOSTAT] showed an IC50 [4] of 660 nM.
`COc1ncc(-c2ccc3ncnc(N[C@H]4CCN(C(=O)OC(C)(C)C)C4)c3c2)cc1C#N` showed an IC50 [2] of 18.7 nM and an inhibition [1] of 88%.
For `CC(C)(C)OC(=O)N1CC[C@H](Nc2ncnc3ccc(-c4cnc(N)nc4)cc23)C1`, the inhibition [1] was 44%.
`COc1ncc(-c2ccc3ncnc(N[C@H]4CCN(C(=O)OC(C)(C)C)C4)c3c2)cc1[N+](=O)[O-]` showed an inhibition [1] of 51%.
Work on `COc1ccc(-c2ccc3ncnc(N[C@H]4CCN(C(=O)C(C)(C)C)C4)c3c2)cn1` yielded an inhibition [1] of 79%.
Work on `CC(C)(C)OC(=O)N1CC[C@H](Nc2ncnc3ccc(-c4ccc(OC(F)(F)F)cc4)cc23)C1` yielded an inhibition [1] of 2%.
In the case of `COc1ccc(-c2ccc3ncnc(N[C@H]4CCN(C(=O)OC(C)(C)C)C4)c3c2)cn1`, the IC50 [2] is reported as 8.1 nM and the inhibition [1] is reported as 91%.
`COc1ccc(-c2ccc3ncnc(N[C@H]4CCN(C(=O)C5CCCCC5)C4)c3c2)cn1` showed an IC50 [2] of 2.9 nM and an inhibition [1] of 85%.
For `CC[C@H](Nc1ncnc2[nH]cnc12)c1nc2cccc(F)c2c(=O)n1-c1ccccc1` [IDELALISIB], the inhibition [1] was 96%, the IC50 [5] was over 10000 nM and the IC50 [6] was 9950 nM. It also gave an IC50 [4] of 5490 nM, an IC50 [7] of 650 nM and a Cmax [8] of 129 ng/mL. For the same compound, the AUC [9] was 422 ng·h/mL and the bioavailability [10] was 39%.
Work on `COc1ccc(-c2ccc3ncnc(N[C@H]4CCN(C(=O)C5CC5)C4)c3c2)cc1C(N)=O` yielded an inhibition [1] of 84%.
With `COc1ccc(-c2ccc3ncnc(N[C@H]4CCN(C(=O)c5ccco5)C4)c3c2)cn1` the IC50 [2] was 5.5 nM and the inhibition [1] was 97%.
For `COc1ccc(-c2ccc3ncnc(N[C@H]4CCN(C(=O)C5CCC5)C4)c3c2)cn1`, the IC50 [2] was 5.2 nM and the inhibition [1] was 98%.
Work on `COc1ccc(-c2ccc3ncnc(N[C@H]4CCN(C(=O)c5ccccc5)C4)c3c2)cn1` yielded an IC50 [2] of 3 nM and an inhibition [1] of 87%.
Work on `COc1ncc(-c2ccc3ncnc(N[C@H]4CCN(C(=O)C5CC5)C4)c3c2)cc1C#N` yielded an IC50 [2] of 5.5 nM and an inhibition [1] of 97%.
In the case of `COc1ccc(-c2ccc3ncnc(N[C@H]4CCN(C(=O)OC(C)(C)C)C4)c3c2)cc1C(N)=O`, the inhibition [1] is reported as 74%.
With `COc1ccc(-c2ccc3ncnc(N[C@H]4CCN(C(=O)C5CC5)C4)c3c2)cn1` the IC50 [2] was 4.5 nM, the inhibition [1] was 97% and the IC50 [11] was 25.4 nM. It also gave an IC50 [12] of 220 nM, an IC50 [13] of 224 nM and an IC50 [5] of 520 nM. The IC50 [6] was 2130 nM, the IC50 [4] was 1460 nM and the IC50 [7] was 500 nM.
`COc1ccc(-c2ccc3ncnc(N[C@H]4CCN(C(=O)C5CCCC5)C4)c3c2)cn1` gave an IC50 [2] of 4.4 nM and an inhibition [1] of 97%.
`COc1cc(C(N)=O)cc(-c2ccc3ncnc(N[C@H]4CCN(C(=O)OC(C)(C)C)C4)c3c2)c1` gave an inhibition [1] of 82%.
For `COc1ccc(-c2ccc3ncnc(N[C@@H]4CCN(C(=O)C5CCOCC5)C4)c3c2)cn1`, the inhibition [1] was 46%.
Work on `COc1ccc(-c2ccc3ncnc(N[C@H]4CCNC4)c3c2)cn1` yielded an inhibition [1] of 38%.
Compound `COc1ncc(-c2ccc3ncnc(N[C@H]4CCN(C(=O)C5CCOCC5)C4)c3c2)cc1C#N` has an IC50 [2] of 2.7 nM, an inhibition [1] of 99% and an IC50 [11] of 25.6 nM. The IC50 [12] was 264 nM, the IC50 [13] was 174 nM and the IC50 [5] was 570 nM. It also gave an IC50 [6] of over 10000 nM, an IC50 [4] of 4340 nM and an IC50 [7] of 4550 nM. It also gave a Cmax [14] of 664 ng/mL, an AUC [15] of 524 ng·h/mL and a Ratio IC50 [16] of 10. The Ratio IC50 [17] was 100, the Ratio IC50 [18] was 65 and the CL [19] was 40 mL/min/kg. For the same compound, the Vz [20] was 113 L/kg and the t1/2 [21] was 2.99 h.
Work on `COc1ccc(-c2ccc3ncnc(N[C@H]4CCN(S(=O)(=O)C5CC5)C4)c3c2)cn1` yielded an IC50 [2] of 13.5 nM and an inhibition [1] of 83%.
`COc1ccc(-c2ccc3ncnc(N[C@H]4CCN(C(=O)Cc5ccccc5)C4)c3c2)cn1` gave an inhibition [1] of 79%.
`O=C(C1CC1)N1CC[C@H](Nc2ncnc3ccc(-c4ccc(OC(F)(F)F)cc4)cc23)C1` showed an inhibition [1] of 13%.
For `CC(C)(C)OC(=O)N1CC[C@H](Nc2ncnc3ccc(-c4ccc(N)nc4)cc23)C1`, the inhibition [1] was 17%.
`COc1ccc(-c2ccc3ncnc(N[C@H]4CCN(C(=O)CC(C)(C)C)C4)c3c2)cn1` showed an IC50 [2] of 4.6 nM and an inhibition [1] of 94%.
`COc1ncc(-c2ccc3ncnc(N[C@H]4CCN(C(=O)C5CCOCC5)C4)c3c2)cc1[N+](=O)[O-]` gave an IC50 [2] of 3.1 nM, an inhibition [1] of 99% and an IC50 [11] of 26.7 nM. It also gave an IC50 [12] of 585 nM, an IC50 [13] of 199 nM and an IC50 [5] of 780 nM. For the same compound, the IC50 [6] was 1480 nM, the IC50 [4] was 2710 nM and the IC50 [7] was 5970 nM.
Compound `COc1ccc(-c2ccc3ncnc(N[C@@H]4CCN(C(=O)OC(C)(C)C)C4)c3c2)cn1` has an inhibition [1] of 0%.
